According to US20250009750A1, “METHODS OF TREATING DISORDERS ASSOCIATED WITH EYA OVEREXPRESSION AND MUTATIONS” (The Board of Regents of the University of Texas System, priority 2023, published 2025):

How the values were obtained:
[1] = biological target: T1, EYA4 tyrosine phosphatase (Homo sapiens, UniProt O95677); assay: Malachite green phosphatase assay, full length EYA4, tyrosine phosphatase activity; format: biochemical; settings: increasing amounts of inhibitor
T1 construct: GFP (pEGFP-C1) (N, cleaved yes); made in house; host or cells: Expi293 mammalian suspension cells
T1 sequence (O95677 1-639): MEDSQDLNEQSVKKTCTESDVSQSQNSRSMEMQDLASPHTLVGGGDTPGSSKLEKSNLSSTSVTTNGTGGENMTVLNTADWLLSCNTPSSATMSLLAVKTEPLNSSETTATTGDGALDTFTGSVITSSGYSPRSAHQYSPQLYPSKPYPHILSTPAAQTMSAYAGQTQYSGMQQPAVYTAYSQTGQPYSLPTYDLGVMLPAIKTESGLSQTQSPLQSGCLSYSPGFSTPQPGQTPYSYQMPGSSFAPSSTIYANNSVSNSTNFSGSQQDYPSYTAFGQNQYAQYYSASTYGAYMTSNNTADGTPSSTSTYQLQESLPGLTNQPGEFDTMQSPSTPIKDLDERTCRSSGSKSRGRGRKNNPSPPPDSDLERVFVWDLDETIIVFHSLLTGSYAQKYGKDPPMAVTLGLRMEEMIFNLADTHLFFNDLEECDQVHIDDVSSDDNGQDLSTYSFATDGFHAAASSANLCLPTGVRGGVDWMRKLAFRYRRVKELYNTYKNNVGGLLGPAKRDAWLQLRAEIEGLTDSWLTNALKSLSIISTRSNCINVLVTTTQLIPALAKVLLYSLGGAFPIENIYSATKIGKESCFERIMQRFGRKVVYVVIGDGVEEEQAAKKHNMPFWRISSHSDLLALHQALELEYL
Experimental: (§1) To measure phosphatase activity, increasing concentrations of EYA4 (0-200 nM, alone or pre-incubated with ssDNA) were incubated in the presence of 400 nM potential substrates (peptides sourced from Genscript, see list and sequence in figures) in 50 μL of reaction buffer A ([…] pH 6, 2 mM MgCl2, 50 μM DTT) for 1 h at 37° C. At the end of the first incubation, the reaction mix containing malachite green was added to phosphatase or ATPase reactions, and the mixture was further incubated for 30 minutes at 37° C. Plates were read at 620 nm in a plate reader. The quantity of […] was inferred from the standard curve prepared as per manufacturer recommendation (Sigma).
[…] proteins have been described to dephosphorylate residue Y142 on the histone variant H2AX and the same activity was recently confirmed in EYA4. Using the synthetic peptide KATQASQE{pTyr} as substrate and a commercial colorimetric malachite green assay (Sigma) that allows to quantify […] released in the buffer by a phosphatase, EYA4's tyrosine phosphatase activity was assayed in the presence of putative inhibitors.
In a malachite green assay, the tyrosine but not serine/threonine phosphatase activity was inhibited by CIDD molecule—149689. […]

[2] = biological target: T2, EYA4 serine/threonine phosphatase domain (Homo sapiens, UniProt O95677); assay: Malachite green phosphatase assay, first 365 residues of EYA4 (serine/threonine phosphatase domain), 53BP1-derived peptide; format: biochemical
T2 construct: the N-terminus domain of EYA4 (residues 1-365), was sub-cloned as a Strep-mCherry-EYA4-His construct; Strep (N); His (C); made in house; host or cells: Sf9 insect cells (baculovirus, pFastBac1)
T2 sequence (O95677 1-365): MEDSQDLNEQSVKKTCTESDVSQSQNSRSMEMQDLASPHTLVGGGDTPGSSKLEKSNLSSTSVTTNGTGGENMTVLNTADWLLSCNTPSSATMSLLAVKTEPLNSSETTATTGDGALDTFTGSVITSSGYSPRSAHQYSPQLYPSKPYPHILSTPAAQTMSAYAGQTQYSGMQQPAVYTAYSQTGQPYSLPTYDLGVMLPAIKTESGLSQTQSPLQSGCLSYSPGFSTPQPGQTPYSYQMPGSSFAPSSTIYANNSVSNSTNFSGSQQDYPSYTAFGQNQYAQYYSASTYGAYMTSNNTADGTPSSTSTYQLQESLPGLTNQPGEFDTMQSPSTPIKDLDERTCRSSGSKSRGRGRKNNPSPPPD
Experimental: as §1
In a malachite green assay, the tyrosine but not serine/threonine phosphatase activity was inhibited by CIDD molecule—149689. For this assay, full length EYA4 purified near homogeneity as previously described was incubated with increasing amounts of inhibitor, then mixed with either peptide KATQASQE{pTyr} from H2AX or with peptide from RAD51.

[3] = tested on: HRD+ pancreatic cell lines; assay: Survival of treated pancreatic cell lines panel; format: cell-based; settings: at the concentrations tested, FIG. 34C
Excerpt: Using molecules that target regulators of DNA metabolism mechanisms (repair, recombination, replication), such as kinase and phosphatase can offer a therapeutic window for drug resistant, HRD>0 patients. EYA4 inhibitors have been tested on the pancreatic cell lines panel. […] EYA4i have therapeutic potential for the treatment of pancreatic cancer, including PARPi refractory disease.

For Clc1ccc(CNc2nc(NC3CCCC3)nc3ccccc23)cc1Cl [CIDD molecule—149689, N2-cyclopentyl-N4-(3,4-dichlorobenzyl) quinazoline-2,4-diamine], the “EYA4 tyrosine phosphatase activity” value ([1]; peptide KATQASQE{pTyr} from H2AX) was “significantly reduced”, the “EYA4 tyrosine phosphatase activity” value ([1]; peptide from RAD51) was “significantly reduced” and the serine/threonine phosphatase activity [2] was “not inhibited”.
O=C(NN=Cc1ccc(Sc2ncccn2)o1)c1cccc(Cl)c1 [CSCS14817788384, 3-chloro-N′-{[5-(pyrimidin-2-ylsulfanyl)furan-2-yl]methylidene}benzohydrazide] was tested, and the “growth of pancreatic cells” value [3] was “does not efficiently inhibit growth”.
